According to PMC10412605 (Nature Communications, 2023):

T1: human mSerRS (Homo sapiens, UniProt Q9NP81)
T1 construct: gene SARS2; aa 31-518, without N-terminal 30 residues; N-terminal GST tag (pGEX-6P1) cut by PreScission protease; expressed in E. coli BL21(DE3); homodimer
T1 sequence (Q9NP81 31-518): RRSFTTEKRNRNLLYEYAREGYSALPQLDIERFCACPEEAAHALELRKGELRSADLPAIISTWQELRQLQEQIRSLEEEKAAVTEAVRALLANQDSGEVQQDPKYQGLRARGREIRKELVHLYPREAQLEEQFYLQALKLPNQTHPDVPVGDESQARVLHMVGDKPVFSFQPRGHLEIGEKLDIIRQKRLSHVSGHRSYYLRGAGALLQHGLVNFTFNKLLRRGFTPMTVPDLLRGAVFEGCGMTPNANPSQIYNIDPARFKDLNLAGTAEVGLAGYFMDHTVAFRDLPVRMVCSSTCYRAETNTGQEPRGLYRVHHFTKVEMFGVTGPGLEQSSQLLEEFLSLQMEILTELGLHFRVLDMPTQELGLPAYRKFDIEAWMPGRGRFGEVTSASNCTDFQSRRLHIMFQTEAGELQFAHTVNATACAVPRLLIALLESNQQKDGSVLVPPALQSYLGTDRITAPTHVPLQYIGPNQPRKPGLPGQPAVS


Legend:
human mSerRS = target: T1, human mSerRS; experiment: cryo-EM structure, […] Å; assay type: binding; settings: complex with stabilized mtRNASer(UGA) transcript; both active sites of the dimer occupied; pH 7.0, 7.5 mM MgCl2
[1] = target: the molecule itself; experiment: mass photometry; 25 nM mSerRS, 125 nM mtRNASer(UGA), 250 nM SerSA; 20 mM HEPES pH 7.0, 100 mM NaCl, 7.5 mM MgCl2, 1 mM DTT

Row | Molecule | cryo-EM structure, 3.6 Å (human mSerRS) | stoichiometry N [1]
1 | Nc1ncnc2c1ncn2[C@@H]1O[C@H](COS(=O)(=O)NC(=O)[C@@H](N)CO)[C@@H](O)[C@H]1O [SerSA, 5’-O-[N-(L-seryl)sulfamoyl] adenosine] | Both active sites are occupied by a SerSA ligand | 
2 | human mSerRS (mitochondrial seryl-tRNA synthetase) (enzyme, UniProt Q9NP81 31-518, looked up, also called mt-SerRS; not shown: GST, N-terminal, cleaved) RRSFTTEKRNRNLLYEYAREGYSALPQLDIERFCACPEEAAHALELRKGELRSADLPAIISTWQELRQLQEQIRSLEEEKAAVTEAVRALLANQDSGEVQQDPKYQGLRARGREIRKELVHLYPREAQLEEQFYLQALKLPNQTHPDVPVGDESQARVLHMVGDKPVFSFQPRGHLEIGEKLDIIRQKRLSHVSGHRSYYLRGAGALLQHGLVNFTFNKLLRRGFTPMTVPDLLRGAVFEGCGMTPNANPSQIYNIDPARFKDLNLAGTAEVGLAGYFMDHTVAFRDLPVRMVCSSTCYRAETNTGQEPRGLYRVHHFTKVEMFGVTGPGLEQSSQLLEEFLSLQMEILTELGLHFRVLDMPTQELGLPAYRKFDIEAWMPGRGRFGEVTSASNCTDFQSRRLHIMFQTEAGELQFAHTVNATACAVPRLLIALLESNQQKDGSVLVPPALQSYLGTDRITAPTHVPLQYIGPNQPRKPGLPGQPAVS |  | 2
